We go through 9 molecules from ChEMBL document CHEMBL1201862, “PubChem BioAssay data set” (2004).

Molecules are shown by their SMILES.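 The compound was tested at five concentrations on cells cultured in 96-well plates, with a 48-hour exposure period. GI50: concentration for 50% inhibition of growth.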 Calls of active or inactive are those of the source. Rule as the data show it: active = GI50 up to about 1.1 µM and inactive = higher.

Test systems include SW-620; PC-3; M14; LOX IMVI; CAKI-1; U-251; OVCAR-4; SNB-19; UACC-257; SN12C; SK-OV-3; Malme-3M; MOLT-4; HCT-15; NCI-H23; SK-MEL-5; DU-145; TK-10.
What all share (experiment): DTP human tumour cell line panel, 48 h

The GI50 is the concentration at which growth is held to half of that of the control. Regarding `CN(CCC#N)c1ccc(/C=C2\SC(=S)NC2=O)cc1`, the GI50 was 58.2 µM (inactive) with SW-620; 34.3 µM (inactive) with PC-3; 67.6 µM (inactive) with M14; 8.2 µM (inactive) with LOX IMVI; > 100 µM (inactive) with CAKI-1; 32.8 µM (inactive) in the assay on U-251. Besides, the GI50 with OVCAR-4 was 62.8 µM (inactive); in the assay with SNB-19, 71 µM (inactive); with UACC-257 it was > 100 µM (inactive); in the assay with SN12C, 80.4 µM (inactive); in the assay on SK-OV-3, 71.9 µM (inactive); in the assay on Malme-3M, > 100 µM (inactive). Besides, the GI50 with MOLT-4 was 42 µM (inactive); with HCT-15, 48.2 µM; with NCI-H23, 39.5 µM (inactive); in the assay on SK-MEL-5 it was 52 µM (inactive); in the assay with DU-145, 73.6 µM (inactive); with TK-10 it was 49.7 µM (inactive).

For the molecule `Cc1sc2nc3n(c(=O)c2c1C)N=CN(c1ccc(F)cc1)C3`, the GI50 was > 100 µM (inactive) in the assay on SW-620; > 100 µM (inactive) in the assay with PC-3; > 100 µM (inactive) in the assay with M14; > 100 µM (inactive) with LOX IMVI; > 100 µM (inactive) in the assay with CAKI-1; 50.1 µM (inactive) in the assay on U-251. Also, the GI50 in the assay on OVCAR-4 is 18.7 µM (inactive); in the assay on SNB-19, 38 µM (inactive); in the assay on UACC-257, > 100 µM (inactive); in the assay with SN12C, 32.9 µM (inactive); in the assay with SK-OV-3, 52 µM (inactive); in the assay on Malme-3M, 25 µM (inactive). The GI50 was > 100 µM (inactive) in the assay on MOLT-4; over 100 µM in the assay with HCT-15; > 100 µM (inactive) in the assay on NCI-H23; > 100 µM (inactive) with SK-MEL-5; > 100 µM (inactive) in the assay on DU-145; > 100 µM (inactive) in the assay on TK-10.

As to `O=C(NC(OCc1ccccc1)(C(F)(F)F)C(F)(F)F)OCc1ccccc1`, the GI50 was 17.3 µM (inactive) with SW-620; 13.8 µM (inactive) in the assay on PC-3; 18.9 µM (inactive) in the assay on M14; 14.5 µM (inactive) in the assay on LOX IMVI; 14.4 µM (inactive) in the assay with CAKI-1; 14.1 µM (inactive) in the assay on U-251. For the same molecule, the GI50 with SNB-19 was 15.8 µM (inactive); in the assay on UACC-257 it was 14.2 µM (inactive); in the assay on SN12C it was 15.9 µM (inactive); in the assay on SK-OV-3, 17.5 µM (inactive); in the assay with Malme-3M, 18 µM (inactive); in the assay on MOLT-4, 18.1 µM (inactive). For the same molecule, the GI50 was 13.8 µM in the assay on HCT-15; 12.9 µM (inactive) in the assay on NCI-H23; 15.8 µM (inactive) in the assay with SK-MEL-5; 16.6 µM (inactive) with DU-145; 7.8 µM (inactive) in the assay on TK-10.

For `Cc1ccc(SC[C@@]2(C(F)F)NC(=O)NC2=O)cc1`, the GI50 with SW-620, in the assay with PC-3, in the assay on M14, with LOX IMVI, with CAKI-1 and in the assay on U-251 was > 100 µM (inactive) throughout. Also, the GI50 in the assay with OVCAR-4, with SNB-19, in the assay on UACC-257, with SK-OV-3, with Malme-3M and in the assay on MOLT-4 was > 100 µM (inactive) throughout. Further, the concentration for 50% growth inhibition (GI50) in the assay with HCT-15 was over 100 µM; with NCI-H23 it was > 100 µM (inactive); in the assay on SK-MEL-5, > 100 µM (inactive); in the assay on DU-145, > 100 µM (inactive); with TK-10, > 100 µM (inactive).

Take `CCOC(=O)c1ccc(/N=c2/[nH]c3ccccc3s/c2=N/c2ccc(C(=O)OCC)cc2)cc1`: the GI50 in the assay on SW-620 was > 100 µM (inactive); in the assay with PC-3 it was > 100 µM (inactive); in the assay on LOX IMVI, > 100 µM (inactive); in the assay on CAKI-1, > 100 µM (inactive); in the assay on U-251 it was 39.4 µM (inactive); in the assay on OVCAR-4, 33.6 µM (inactive). Moreover, the GI50 with SNB-19, in the assay with UACC-257, in the assay on SN12C, with SK-OV-3, in the assay on Malme-3M and with MOLT-4 was > 100 µM (inactive) throughout. The GI50 in the assay with HCT-15 was over 100 µM; with NCI-H23 it was > 100 µM (inactive); in the assay with SK-MEL-5, > 100 µM (inactive); in the assay on DU-145, > 100 µM (inactive); in the assay with TK-10 it was > 100 µM (inactive).

Regarding `C=CC1(C)OC2(CCN(C(=O)OCC)CC2)OC1C` (centres undefined), the GI50 in the assay with SW-620, in the assay on PC-3, in the assay with M14, in the assay with LOX IMVI, with CAKI-1 and in the assay on U-251 was > 100 µM (inactive) each time. For the same molecule, the GI50 with OVCAR-4 was > 100 µM (inactive); in the assay on SNB-19, > 100 µM (inactive); in the assay with UACC-257 it was > 100 µM (inactive); in the assay with SK-OV-3, > 100 µM (inactive); in the assay on Malme-3M, > 100 µM (inactive); in the assay with MOLT-4 it was 34.8 µM (inactive). For the same molecule, the GI50 with HCT-15 was over 100 µM; in the assay on NCI-H23, > 100 µM (inactive); in the assay with SK-MEL-5, > 100 µM (inactive); in the assay on DU-145, > 100 µM (inactive); with TK-10, > 100 µM (inactive).

For `CCOC(NC(=O)CC)(C(F)(F)F)C(F)(F)F`, the GI50 in the assay with SW-620, with PC-3, in the assay with M14, in the assay on LOX IMVI, with CAKI-1 and in the assay with U-251 was > 100 µM (inactive) in each case. Moreover, the GI50 in the assay on SNB-19, in the assay on UACC-257, in the assay on SN12C, in the assay on SK-OV-3, with Malme-3M and with MOLT-4 was > 100 µM (inactive) each time. The GI50 was over 100 µM in the assay with HCT-15; > 100 µM (inactive) with NCI-H23; > 100 µM (inactive) in the assay on SK-MEL-5; > 100 µM (inactive) in the assay with DU-145; > 100 µM (inactive) in the assay with TK-10.

Regarding `NC(=O)C1CCCN1C(=O)C(Cc1c[nH]cn1)NC(=O)C1CCCC1` (centres undefined), the GI50 in the assay with SW-620, in the assay on PC-3, in the assay with M14, in the assay on LOX IMVI, with CAKI-1 and with U-251 was > 100 µM (inactive) each time. In addition, the GI50 with OVCAR-4, with SNB-19, in the assay with SN12C, in the assay with SK-OV-3, in the assay on Malme-3M and in the assay on MOLT-4 was > 100 µM (inactive) throughout. The GI50 was over 100 µM with HCT-15; > 100 µM (inactive) with NCI-H23; > 100 µM (inactive) with SK-MEL-5; > 100 µM (inactive) in the assay on DU-145; > 100 µM (inactive) in the assay on TK-10.

Regarding `CN(C)c1nc2nonc2nc1Nc1ccccc1`, the GI50 in the assay with SW-620, in the assay on PC-3, in the assay with M14, in the assay on LOX IMVI, in the assay on U-251 and with SNB-19 was > 100 µM (inactive) in each case. For the same molecule, the GI50 with UACC-257 is > 100 µM (inactive); with SN12C, > 100 µM (inactive); with SK-OV-3 it was > 100 µM (inactive); in the assay on Malme-3M it was > 100 µM (inactive); in the assay on MOLT-4 it was > 100 µM (inactive); with HCT-15, over 100 µM. In addition, the GI50 with NCI-H23, in the assay on SK-MEL-5, with DU-145 and with TK-10 was > 100 µM (inactive) in each case.
